Measurements published in patent US8658642B2 (Axikin Pharmaceuticals, Inc., priority 2009, dated 2014).

The compounds below were run against T1, CCR3 (Homo sapiens, UniProt P51677) (assay: CCR3 receptor binding assay ([125I]-labeled human eotaxin/CCL11 displacement on cells)). Settings: 0.1 nM [125I]-labeled human eotaxin/CCL11, 2×10^5 cells/well, 60 min at room temperature.
T1 sequence (P51677 1-355): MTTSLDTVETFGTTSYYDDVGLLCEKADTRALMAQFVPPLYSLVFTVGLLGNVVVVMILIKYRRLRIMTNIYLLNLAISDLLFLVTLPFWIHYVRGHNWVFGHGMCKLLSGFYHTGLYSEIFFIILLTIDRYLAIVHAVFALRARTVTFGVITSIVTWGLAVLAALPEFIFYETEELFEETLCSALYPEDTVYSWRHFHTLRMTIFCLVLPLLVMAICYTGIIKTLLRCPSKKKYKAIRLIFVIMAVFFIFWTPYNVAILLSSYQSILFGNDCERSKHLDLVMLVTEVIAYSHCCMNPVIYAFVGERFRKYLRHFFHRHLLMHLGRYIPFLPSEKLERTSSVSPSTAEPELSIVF
Method: CCR3 Receptor Binding Assay
Cells were washed once with PBS and resuspended in a binding buffer (25 mM HEPES pH 7.6, 5 mM MgCl2, 1 mM CaCl2, 0.5% BSA, 0.1% NaN3). […] of cell suspension (2×10^5 cells/well) and 0.1 nM [^125I]-labeled human eotaxin/CCL11 (2000 Ci/mmol specific activity) were mixed in a 96-well U-bottom polypropylene plate, and incubated for 60 min at room temperature for the binding reaction. The cell suspension was then transferred to a filtration plate (#MAFB, Millipore), and washed 3 times with the binding buffer containing 0.5 M NaCl, scintillant added, and the radioactivity was counted on a TopCount (Packard). For the determination of non-specific binding, the cell suspension and [^125I]-labeled human eotaxin/CCL11 were incubated in the presence of 500 nM of unlabeled human eotaxin/CCL11. See, lino et al., “Molecular cloning and functional characterization of cynomolgus monkey (Macaca fascicularis) CC chemokine receptor, CCR3,” Cytokine 2002, 19, 276-286.

Compound | Ki
Cc1cc(C)cc(Oc2ccc(C#N)cc2S(=O)(=O)N2CCN(C(=O)Nc3ccc([N+](=O)[O-])cc3)CC2)c1 [Compound 119] | > 5 µM
Cc1ccccc1C(=O)N1CCN(S(=O)(=O)c2cc(C#N)ccc2Sc2cc(Cl)cc(Cl)c2)CC1 [Compound 106] | > 5 µM
Cc1ccc(S(=O)(=O)N2CCN(S(=O)(=O)c3cc(C#N)ccc3Oc3cc(C)cc(C)c3)CC2)cc1 [Compound 53, 4-(3,5-Dimethylphenoxy)-3-(4-tosylpiperazin-1-ylsulfonyl)benzonitrile] | > 5 µM
N#Cc1ccc(Oc2cc(Cl)cc(Cl)c2)c(S(=O)(=O)N2CCN(C(=O)c3cccs3)CC2)c1 [Compound 123] | > 5 µM
CC(C)NC(=O)N1CCN(S(=O)(=O)c2cc(C#N)ccc2Sc2cc(Cl)cc(Cl)c2)CC1 [Compound 100] | > 5 µM
N#Cc1ccc(Oc2cc(Cl)cc(Cl)c2)c(S(=O)(=O)N2CCN(C(=O)OCCCCCl)CC2)c1 [Compound 158] | > 5 µM
N#Cc1ccc(Oc2cc(Cl)cc(Cl)c2)c(S(=O)(=O)N2CCN(C(=O)c3ccc4nonc4c3)CC2)c1 [Compound 130] | > 5 µM
Cc1cc(C)cc(Oc2ccc(C#N)cc2S(=O)(=O)N2CCN(C(=O)C(C)C)CC2)c1 [Compound 108] | > 5 µM
Cc1ccc(C)c(Oc2ccc([N+](=O)[O-])cc2S(=O)(=O)N2CCN(C(=O)c3ccco3)CC2)c1 [Compound 190, (4-(2-(2,5-Dimethylphenoxy)-5-nitrophenylsulfonyl)piperazin-1-yl)(furan-2-yl)methanone] | > 5 µM

Continued, values first:

Ki | Compound
> 5 µM | Cc1cc(C)cc(Oc2ccc(C#N)cc2S(=O)(=O)N2CCN(C(=O)CC(C)C)CC2)c1 [Compound 66, 4-(3,5-Dimethylphenoxy)-3-(4-(3-methylbutanoyl)piperazin-1-ylsulfonyl)benzonitrile]
> 5 µM | Cc1cc(C(=O)N2CCN(S(=O)(=O)c3cc(C#N)ccc3Oc3cc(Cl)cc(Cl)c3)CC2)n(C)n1 [Compound 126]
> 5 µM | O=C(CCCCl)N1CCN(S(=O)(=O)c2cc([N+](=O)[O-])ccc2Sc2cc(Cl)ccc2Cl)CC1 [Compound 160, 4-Chloro-1-(4-(2-(2,5-dichlorophenylthio)-5-nitrophenylsulfonyl)piperazin-1-yl)butan-1-one]
0.5 to 5 µM | Cc1ccc(C(=O)N2CCN(S(=O)(=O)c3cc(C#N)ccc3Oc3cc(Cl)cc(Cl)c3)CC2)cc1 [Compound 82, 4-(3,5-Dichlorophenoxy)-3-(4-(4-methylbenzoyl)piperazin-1-ylsulfonyl)benzonitrile]
> 5 µM | CC(C)(C)CC(=O)N1CCN(S(=O)(=O)c2cc(C#N)ccc2Oc2cc(Cl)cc(Cl)c2)CC1 [Compound 71, 4-(3,5-Dichlorophenoxy)-3-(4-(3,3-dimethylbutanoyl)piperazin-1-ylsulfonyl)benzonitrile]
0.05 to 0.5 µM | Cc1ccsc1C(=O)N1CCN(S(=O)(=O)c2cc(C#N)ccc2Oc2cc(Cl)cc(Cl)c2)CC1 [Compound 138]
≤ 0.05 µM | CS(=O)(=O)N1CCN(S(=O)(=O)c2cc(C#N)ccc2Oc2cc(Cl)cc(Cl)c2)CC1 [Compound 76, 4-(3,5-Dichlorophenoxy)-3-(4-(methylsulfonyl)piperazin-1-ylsulfonyl)benzonitrile]
≤ 0.05 µM | N#Cc1ccc(Oc2cc(Cl)cc(Cl)c2)c(S(=O)(=O)N2CCN(C(=S)NC(=O)c3ccccc3)CC2)c1 [Compound 145]
≤ 0.05 µM | Cc1cccc(C(=O)N2CCN(S(=O)(=O)c3cc(C#N)ccc3Oc3cc(Cl)cc(Cl)c3)CC2)c1 [Compound 79, 4-(3,5-Dichlorophenoxy)-3-(4-(3-methylbenzoyl)piperazin-1-ylsulfonyl)benzonitrile]
≤ 0.05 µM | Cc1nnsc1C(=O)N1CCN(S(=O)(=O)c2cc(C#N)ccc2Oc2cc(Cl)cc(Cl)c2)CC1 [Compound 127]
0.05 to 0.5 µM | CCOC(=O)CCNC(=S)N1CCN(S(=O)(=O)c2cc(C#N)ccc2Oc2cc(Cl)cc(Cl)c2)CC1 [Compound 143]
≤ 0.05 µM | CCOC(=O)CCNC(=S)N1CCN(S(=O)(=O)c2cc([N+](=O)[O-])ccc2Sc2cc(Cl)ccc2Cl)CC1 [Compound 198]
